# In ChEMBL document CHEMBL1155663, “A new major triterpene saponin from the roots of Cucurbita foetidissima” (J Nat Prod, 2000):
# The source made the active and inactive calls. The rule behind the calls is not given here.
# Tested on: HT-29
# Test: Potentiation of cisplatin-induced cytotoxicity against human HT29 cells
# Format: functional, cell-based
smiles,measurement,value
C[C@@H]1O[C@@H](O[C@@H]2[C@@H](OC(=O)[C@]34CCC(C)(C)C[C@@H]3C3=CC[C@@H]5[C@@]6(C)CC[C@H](O[C@@H]7O[C@H](C(=O)O)[C@@H](O)[C@H](O)[C@H]7O)C(C)(C)[C@@H]6CC[C@@]5(C)[C@]3(C)C[C@H]4O)OC[C@@H](O)[C@H]2O)[C@H](O)[C@H](O[C@H]2OC[C@H](O)[C@@H](O[C@H]3O[C@@H](CO)[C@H](O)[C@@H](O)[C@@H]3O)[C@@H]2O)[C@H]1O[C@@H]1OC[C@@H](O)[C@H](O)[C@H]1O,Activity,inactive
